pIC50: −log10 of the molar value. Where a name gives a salt, the structure may show the parent alone.

In US9045461B2, “Phenyl-heteroaryl derivatives and methods of use thereof” (TransTech Pharma, LLC, priority 2010, dated 2015) one finds IC50 data, which are given here for 23 molecules.

For experiment [1], the target named is T1, sRAGE binding to β-amyloid (Homo sapiens, UniProt Q15109).
T1 construct: extracellular domain can be isolated by proteolysis of RAGE to generate soluble RAGE (sRAGE) comprised of the V and C domains
T1 sequence (Q15109 23-342 limits assumed): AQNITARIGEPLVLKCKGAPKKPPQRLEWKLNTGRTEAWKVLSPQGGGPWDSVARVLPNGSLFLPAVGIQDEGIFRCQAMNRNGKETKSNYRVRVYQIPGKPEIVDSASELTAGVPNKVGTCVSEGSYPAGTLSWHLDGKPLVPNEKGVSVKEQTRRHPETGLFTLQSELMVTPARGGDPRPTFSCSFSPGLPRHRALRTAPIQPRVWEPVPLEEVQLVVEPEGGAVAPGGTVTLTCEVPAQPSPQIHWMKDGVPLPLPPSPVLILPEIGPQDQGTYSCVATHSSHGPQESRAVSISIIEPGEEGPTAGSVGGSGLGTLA
In words: RAGE binding assay (ELISA), β-amyloid as the RAGE ligand. Particulars: compounds tested in hydrochloride salt form, concentration at which 50% signal has been inhibited. Here is the method: (§1) The following assay method may be used to identify compounds of Formula (I) or pharmaceutically acceptable salts thereof which are useful as inhibitors of binding of physiological RAGE ligands, such as S100b and β-amyloid, to RAGE.
(§2) S100b, β-amyloid, or CML (500 ng/100 μL/well) in 100 mM sodium bicarbonate/sodium carbonate buffer (pH 9.8) is loaded onto the wells of a NUNC Maxisorp flat bottom 96-well microtitre plate. The plate is incubated at 4° C. overnight. The wells are aspirated and treated with 50 mM imidazole buffer saline (pH 7.2) (with 5 mM CaCl2/MgCl2) containing 1% bovine serum albumin (BSA) (300 μL/well) for 1 h at RT. The wells are aspirated.
(§3) Test compounds are dissolved in nanopure water (concentration: 10-100 μM). DMSO may be used as co-solvent. 25 μL of test compound solution in 4% DMSO is added, along with 75 μL sRAGE (6 nM FAC) to each well and samples are incubated for 1 h at 37° C. The wells are washed several times with 155 mM NaCl pH 7.2 buffer saline and are soaked for several seconds between each wash.
(§4) Non-radioactive detection is performed by adding:
(§5) 10 μL Biotinylated goat F(ab′)2 Anti-mouse IgG. (8.0×10-4 mg/mL, FAC), 5 μL Alk-phos-Streptavidin (3×10-3 mg/mL FAC), 0.42 μL per 5 mL Monoclonal antibody for sRAGE (FAC 6.0×10-3 mg/mL) to 5 mL 50 mM imidazole buffer saline (pH 7.2) containing 0.2% bovine serum albumin and 5 mM CaCl2. The mixture is incubated for 30 minutes at RT.
(§6) 100 μL of complex is added to each well and incubation is allowed to proceed at rt for 1 h. Wells are washed several times with wash buffer and soaked several seconds between each wash. 100 μL 1 mg/mL (pNPP) in 1 M diethanolamine (pH adjusted to 9.8 with HCl) is added. Color is allowed to develop in the dark for 30 min to 1 h at rt. The reaction is quenched with 10 μL of stop solution (0.5-1.0 N NaOH in 50% ethanol) and the absorbance is measured spectrophotometrically with a microplate reader at 405 nm.
(§7) The IC50 (μM) value in the ELISA assay represents the concentration of compound at which 50% signal has been inhibited.
In general terms: An ELISA detects its analyte on a solid surface through an enzyme-linked reagent.

The target of another experiment is T2, sRAGE binding to S100b (Homo sapiens, UniProt Q15109).
T2 construct: extracellular domain can be isolated by proteolysis of RAGE to generate soluble RAGE (sRAGE) comprised of the V and C domains
T2 sequence (Q15109 23-342 limits assumed): as above
In words: RAGE binding assay (ELISA), S100b as the RAGE ligand. Particulars: compounds tested in hydrochloride salt form, concentration at which 50% signal has been inhibited. Here is the method: as §1, §2, §3, §4, §5, §6, §7

For the molecule `CCCCc1nnc(OC[C@H]2CN(C)C[C@@H]2CO)cc1-c1ccc(OCc2ccccc2)cc1` (racemic) [Example 6, (±)-trans-{4-[5-(4-Benzyloxy-phenyl)-6-butyl-pyridazin-3-yloxymethyl]-1-methyl-pyrrolidin-3-yl}-methanol dihydrochloride], the pIC50 (in general, the IC50 on a negative log10 scale, so that one unit is a factor of ten) in experiment [1] was 5.63; on sRAGE binding to S100b, 5.67.
On the same counts, the results for `CCCCc1nnc(OC[C@H]2CN(C)C[C@@H]2COC)cc1-c1ccc(OCc2ccccc2)cc1` (racemic) [Example 7, (±)-trans-4-(4-Benzyloxy-phenyl)-3-butyl-6-(4-methoxymethyl-1-methyl-pyrrolidin-3-ylmethoxy)-pyridazine dihydrochloride] are 5.82 and 5.63.
`CCCCc1nnc(OC[C@H]2CCN(C)C[C@H]2O)cc1-c1ccc(OC2CCCCC2)cc1` (racemic) [Example 24, (±)-cis-4-[6-Butyl-5-(4-cyclohexyloxy-phenyl)-pyridazin-3-yloxymethyl]-1-methyl-piperidin-3-ol dihydrochloride]: the pIC50 in experiment [1] is 5.54; at sRAGE binding to S100b, 5.58.
Taken in the same sequence, the figures for `CCCCc1nnc(OC[C@H]2CCN(C)C[C@@H]2O)cc1-c1ccc(OC2CCCCC2)cc1` (racemic) [Example 25, (±)-trans-4-[6-Butyl-5-(4-cyclohexyloxy-phenyl)-pyridazin-3-yloxymethyl]-1-methyl-piperidin-3-ol dihydrochloride] were 5.81 and 5.86.
Taken in the same sequence, the figures for `CCCCc1nnc(OC[C@H]2CCN(C)C[C@H]2OC)cc1-c1ccc(OC2CCCCC2)cc1` (racemic) [Example 35, (±)-cis-3-Butyl-4-(4-cyclohexyloxy-phenyl)-6-(3-methoxy-1-methyl-piperidin-4-ylmethoxy)-pyridazine dihydrochloride] were 6.13 and 6.13.
On the same counts, the results for `CCCCc1nnc(OC[C@H]2CCN(C)C[C@@H]2OC)cc1-c1ccc(OC2CCCCC2)cc1` (racemic) [Example 36, (±)-trans-3-Butyl-4-(4-cyclohexyloxy-phenyl)-6-(3-methoxy-1-methyl-piperidin-4-ylmethoxy)-pyridazine dihydrochloride] are 6.02 and 6.02.
`CCCCc1nnc(O[C@H]2CCN(C)C[C@@H]2F)cc1-c1ccc(OC2CCCCC2)cc1` (racemic) [Example 41, (±)-trans-3-Butyl-4-(4-cyclohexyloxy-phenyl)-6-(3-fluoro-1-methylpiperidin-4-yloxy)-pyridazine dihydrochloride]: the pIC50 in experiment [1] is 5.39; on sRAGE binding to S100b, 5.66.
As to `CCCCc1nnc(O[C@H]2CCN(C)C[C@H]2F)cc1-c1ccc(OC2CCCCC2)cc1` (racemic) [Example 42, (±)-cis-3-Butyl-4-(4-cyclohexyloxy-phenyl)-6-(3-fluoro-1-methylpiperidin-4-yloxy)-pyridazine dihydrochloride], the pIC50 in experiment [1] was 5.74; at sRAGE binding to S100b, 5.66.
Taken in the same sequence, the figures for `CCCCc1nnc(OC[C@H]2CN(C)CC[C@H]2O)cc1-c1ccc(OC2CCCCC2)cc1` (racemic) [Example 43, (±)-cis-3-[6-Butyl-5-(4-cyclohexyloxy-phenyl)-pyridazin-3-yloxymethyl]-1-methyl-piperidin-4-ol dihydrochloride] were 6.08 and 5.68.
Taken in the same sequence, the figures for `CCCCc1nnc(OC[C@H]2CN(C)CC[C@H]2OC)cc1-c1ccc(OC2CCCCC2)cc1` (racemic) [Example 44, (±)-cis-3-Butyl-4-(4-cyclohexyloxy-phenyl)-6-(4-methoxy-1-methyl-piperidin-3-ylmethoxy)-pyridazine dihydrochloride] were 6.49 and 6.32.
Taken in the same sequence, the figures for `CCCCc1nnc(OC[C@H]2CN(C)CC[C@@H]2OC)cc1-c1ccc(OC2CCCCC2)cc1` (racemic) [Example 46, (±)-trans-3-Butyl-4-(4-cyclohexyloxy-phenyl)-6-(4-methoxy-1-methyl-piperidin-3-ylmethoxy)-pyridazine dihydrochloride] were 5.90 and 5.87.
As to `CCCCc1nnc(OC[C@H]2CN(C)CC[C@@H]2O)cc1-c1ccc(OC2CCCCC2)cc1` (racemic) [Example 47, (±)-trans-3-[6-Butyl-5-(4-cyclohexyloxy-phenyl)-pyridazin-3-yloxymethyl]-1-methyl-piperidin-4-ol dihydrochloride], the pIC50 in experiment [1] was 5.60; on sRAGE binding to S100b it was 5.53.
On to `CCCCc1nnc(O[C@@H]2CN(C)CC[C@H]2C(F)F)cc1-c1ccc(OC2CCCCC2)cc1` (racemic) [Example 48, (±)-trans-3-butyl-4-(4-cyclohexyloxy-phenyl)-6-(4-difluoromethyl-1-methyl-piperidin-3-yloxy)-pyridazine dihydrochloride], for which the pIC50 in experiment [1] was 5.05; on sRAGE binding to S100b, 5.59.
On to `CCCCc1nnc(C(=O)N2CC[C@@H](CN(C)C)[C@@H](OC)C2)cc1-c1ccc(OC2CCCCC2)cc1` (racemic) [Example 102, (±)-cis-[6-Butyl-5-(4-cyclohexyloxy-phenyl)-pyridazin-3-yl]-((3R,4S)-4-dimethylaminomethyl-3-methoxy-piperidin-1-yl)-methanone dihydrochloride], for which the pIC50 in experiment [1] was 5.84; at sRAGE binding to S100b it was 5.58.
Taken in the same sequence, the figures for `CCCCc1nnc(C(=O)NC[C@@H]2CCN(C)C[C@@H]2OC)cc1-c1ccc(OC2CCCCC2)cc1` (racemic) [Example 104, (±)-cis-6-Butyl-5-(4-cyclohexyloxy-phenyl)-pyridazine-3-carboxylic acid (3-methoxy-1-methyl-piperidin-4-ylmethyl)-amide dihydrochloride] were 5.79 and 5.95.
On the same counts, the results for `CCCCc1nnc(C(=O)NC[C@H]2CCN(C)C[C@H]2F)cc1-c1ccc(OC2CCCCC2)cc1` (racemic) [Example 110, (±)-cis-6-Butyl-5-(4-cyclohexyloxy-phenyl)-pyridazine-3-carboxylic acid (3-fluoro-1-methyl-piperidin-4-ylmethyl)-amide dihydrochloride] are 5.87 and 5.98.
Taken in the same sequence, the figures for `CCCCc1nnc(C(=O)N[C@H]2CCN(C)C[C@H]2O)cc1-c1ccc(OC2CCCCC2)cc1` (racemic) [Example 112, (±)-cis-6-Butyl-5-(4-cyclohexyloxy-phenyl)-pyridazine-3-carboxylic acid (3-hydroxy-1-methyl-piperidin-4-yl)-amide dihydrochloride] were 5.83 and 5.84.
Consider `CCCCc1nnc(C(=O)N[C@@H]2CCN(C)C[C@@H]2OC)cc1-c1ccc(OC2CCCCC2)cc1` (stereo in doubt) [Example 107, 6-Butyl-5-(4-cyclohexyloxy-phenyl)-pyridazine-3-carboxylic acid (3-methoxy-1-methyl-piperidin-4-yl)-amide dihydrochloride], for which the pIC50 in experiment [1] was 6.25; at sRAGE binding to S100b, 6.01.
In the case of `CCCCc1nnc(OC2CCN(C)CC2)cc1-c1ccc(OCc2ccccc2)cc1` [Example 1, 4-(4-enzyloxy-phenyl)-3-butyl-6-(1-methyl-piperidin-4-yloxy)-pyridazine dihydrochloride], the results for the negative-log IC50 (pIC50) (in experiment [1]; at sRAGE binding to S100b) were 5.96 and 6.02, respectively.
As for `CCCCc1nnc(OCC2CCN(C)CC2)cc1-c1ccc(OCc2ccccc2)cc1` [Example 2, 4-(4-Benzyloxy-phenyl)-3-butyl-6-(1-methyl-piperidin-4-ylmethoxy)-pyridazine], the negative logarithm of the IC50 (pIC50) in experiment [1] was 5.91; on sRAGE binding to S100b, 5.88.
On the same counts, the results for `CCCCc1nnc(OCCN(CC)CC)cc1-c1ccc(OCc2ccccc2)cc1` [Example 3, {2-[5-(4-Benzyloxy-phenyl)-6-butyl-pyridazin-3-yloxy]-ethyl}-diethyl-amine dihydrochloride] are 5.64 and 5.60.
On the same counts, the results for `CCCCc1nnc(OCCCN(CC)CC)cc1-c1ccc(OCc2ccccc2)cc1` [Example 4, 3-[5-(4-Benzyloxy-phenyl)-6-butyl-pyridazin-3-yloxy]-propyl}-diethyl-mine dihydrochloride] are 5.91 and 5.94.
Take `CCCCc1nnc(OCCCN2CCCCC2)cc1-c1ccc(OCc2ccccc2)cc1` [Example 5, 4-(4-Benzyloxy-phenyl)-3-butyl-6-(3-piperidin-1-yl-propoxy)-pyridazine dihydrochloride]: the pIC50 in experiment [1] is 5.20; on sRAGE binding to S100b, 5.51.
